# Assay results published in patent US7589080B2, “β-cyclodextrin compositions, and use to prevent transmission of sexually transmitted diseases” (priority 2000, dated 2009).
# What was measured:
# HIV = assay: Luciferase-based single cycle infectivity assay in LuSIV cells; format: cell-based, HIV-1; conditions: LuSIV cells treated with 20 mM; all viral input levels
# Description: (§1) The effect of 2-OH-βCD on infectivity of HIV was measured in a Luciferase-based single cycle infection assay as previously described (Liao et al., supra, 2000). LuSIV cells were treated with 20 mM 2-OH-βCD in iRPMI or iRPMI alone for 1 hr at 37° C. Cells were then washed with iRPMI before being resuspended in cRPMI at a density of 2×10^6/ml. Cells in 100 Tl were mixed with cRPMI or with dilutions of virus supernatant (62 to 500 pg/ml of p24) from 2-OH-βCD-treated or untreated PM1 cells and allowed to incubate overnight (16 hr) at 37° C. The LuSIV cells were washed with PBS and lysed with 100 Tl of Reporter Lysis Buffer (Promega). After centrifugation at 13,000×g for 30 seconds, 10, μl of lysate were added to 100 μl Luciferase Reagent (Promega) in an opaque 96 well plate and luminescence was measured on a Packard Lumicount luminometer (Downers Grove, Ill.).
# The effects of βCD treatment on HIV infectivity were measured in a sensitive single-cycle infection assay based on a cell line transfected with an LTR-luciferase cassette. […] Quantitative measurements of single round infection are obtained with this assay system (Roos et al., Virology 273:307-315, 2000, which is incorporated herein by reference). […]
# [1] = test system: LFA-1 binding to ICAM-1 triggered through CXCR4; assay: SDF-1α-induced cell adhesion assay; format: cell-based; conditions: Jurkat cells treated with 20 mM
# Description: Cell adhesion assays were carried out essentially as previously described (Liao et al., supra, 2000). The wells of 96 well plates were coated with recombinant ICAM-Ig and blocked as described. Jurkat cells were labeled with horseradish peroxidase (HRP) and treated with either 20 mM 2-OH-βCD or medium alone as described above. The cells were then washed and resuspended in cRPMI at a density of 2×10^6/ml. One hundred Tl of cells were added to the wells along with cRPMI alone or medium containing 10 ng/ml of SDF-1α. The wells were incubated at 37° C. for various times before washing to remove unbound cells. Bound cells were lysed and HRP measured as described previously. A standard curve was generated by from known numbers of labeled cells lysed and quantitated by measuring HRP.
# Loss of CXCR function in regulating LFA-1 could also explain the lower binding of HIV-1 to βCD-treated cells observed previously (Liao et al., supra, 2000; Orentas and Hildreth, supra, 1993). […] The ability of βCD treatment of cells to affect control of LFA-1 function by CXCR4 also was examined. Jurkat cells were treated with 2-OH-βCD or medium alone, then were added to the wells of culture plates coated with soluble recombinant ICAM-Ig. SDF-1, a CXCR4-specific chemokine that triggers LFA-1 function, was added to trigger binding of LFA-1 to ICAM-1. […]
# [2] = test system: HIV-1 primary strain 97.534, dual-tropic (X4R5); assay: Primary virus infection assay, isolate 97.534; format: cell-based; conditions: PHA blasts treated with 10 mM; p24 after 6 days
# Description: (§2) Peripheral blood mononuclear cells (PBMCS) were isolated by Ficoll-Hypaque centrifugation from buffy coats obtained from the Johns Hopkins Hemapheresis Center. Cells were stimulated for 3 days with 3 Tg/ml PHA, washed with iRPMI, and treated with 10 mM 2-OH-βCD in cRPMI for 1 hr. Cells were then washed twice with iRPMI and resuspended in cRPMI (1×10^6/ml) supplemented with 50 U/ml IL-2 and containing primary HIV-1 strains at 20 ng/ml p24. Cells were incubated with virus for 24 hr at 37° C. before washing twice with iRPMI. Cells were then resuspended in cRPMI supplemented with 50 U/ml IL-2 and cultured for 6 days at 37° C. Supernatants were collected and p24 was quantitated by standard p24 ELISA.
# (§3) βCD treatment blocks HIV-1 virus infection. HIV-1 can spread in cell cultures without necessarily exerting cytopathic effects. […] To test the effects of cholesterol depletion on HIV-1 infection of primary T cells by free virus, PHA blasts were treated with 10 mM 2-OH-βCD or medium alone, then were exposed to HIV-1 for 2 hr before washing to remove input virus. Viability and growth of the PHA blasts was not affected by treatment with the βCD under the conditions used. P24 release was measured after an addition 6 days in culture. Two primary strains of HIV-1, 97.099 and 97.534, M-tropic (R5) and dual-tropic (X4R5), respectively, were tested.
# [3] = test system: HIV-1 primary strain 97.099, M-tropic (R5); assay: Primary virus infection assay, isolate 97.099; format: cell-based; conditions: PHA blasts treated with 10 mM; p24 after 6 days
# Description: as §2, §3
# HIV-1 = assay: Virus production and infectivity of virions from cholesterol-depleted cells; format: cell-based
# Description: PM1 cells chronically infected with HIV-1RF were washed and treated with 20 mM 2-OH-βCD in cRPMI or with cRPMI alone for 1 hr at 37° C. The cells were then washed twice before resuspension at a density of 5×10^6/ml in cRPMI. The cells were incubated for 6 hrs at 37° C., 5% CO2 and pelleted by centrifugation. Supernatants, which contained the virus, were collected and purified by centrifugation through a 20% sucrose cushion (Liao et al., supra, 2000). The virus pellets were taken up in cRPMI and titrated against LuSIV cells to determine infectivity. P24 was measured in a standard p24 ELISA.
# as §1, with “The LuSIV cells were washed with PBS and lysed with 100 Tl of Reporter Lysis Buffer (Promega).” left out
substance,measurement,setting,value
2-hydroxypropyl-β-cyclodextrin [2-OH-βCD],Reduction of HIV infection of LuSIV cells,HIV,~100%
same,Binding of Jurkat cells to ICAM-Ig after exposure to SDF-1,[1],no binding to ICAM-Ig
same,Inhibition of infection of PHA blasts by isolate 97.534 (p24 release),[2],more than 70%
same,Infection of PHA blasts by HIV isolate 97.099 (p24 release),[3],completely inhibited
same,Infectivity of virions from cholesterol-depleted cells,HIV-1,significantly less infectious
same,Production of HIV-1 virions from cholesterol-depleted cells,HIV-1,dramatically decreased
